Reference: US12441985B2, “Methods for making insulin in vivo” (priority 2009, dated 2025)
Where “and” joins values, the source holds several entries; their conditions need not be identical. Equal values may be shown once. Read-outs that look alike come from different tables or passages of the source.

Columns and labels:
Format in all cases: cell-based
[1] = system: human embryonic stem cells line H1; assay: Immunocytochemistry of insulin and glucagon expression after Stage 4 TPB treatment (Example 1)
Method: Cells of the human embryonic stem cells line H1 were cultured on MATRIGEL® (1:30 dilution) (BD Biosciences; Cat #356231)-coated dishes with RPMI medium (Invitrogen; Cat #: 22400)+0.2% FBS+100 ng/ml activin A (PeproTech; Cat #120-14)+20 ng/ml WNT-3a (R&D Systems; Cat #1324-WN/CF) for one day followed by treatment with RPMI media+0.5% FBS+100 ng/ml activin A for an additional two days (Stage 1), then, • DMEM/F12 (Invitrogen; Cat #11330-032)+2% FBS+50 ng/ml FGF7 (PeproTech; Cat #100-19) for three days (Stage 2), then • DMEM-High glucose (Invitrogen; Cat #10569)+1% B27+50 ng/ml FGF7+0.25 μM Cyclopamine-KAAD (Calbiochem; Cat #239804)+100 ng/ml Noggin (R&D Systems; Cat #3344-NG) for four days (Stage 3), then • DMEM-High glucose+1% B27 (Invitrogen; Cat #0791)+100 ng/ml Noggin+1 μM ALK5 inhibitor II (Axxora; Cat #ALX-270-445)+500 nM TBP ((2S, 5S)-(E, E)-8-(5-(4-(Trifluoromethyl)phenyl)-2,4-pentadiemoylamino) benzolactam) (Calbiochem; Cat #565740) for six days (Stage 4).
As a control, separate populations of cells were treated with DMEM-High glucose+1% B27+100 ng/ml Noggin+1 μM ALK5 inhibitor II for six days (Stage 4, control group). […] Glucagon-expressing cells were also noted in the cultures that received TBP treatment. Most of the glucagon-expressing cells also co-expressed insulin (FIG. 1 panel A and B). […]

[2] = system: human embryonic stem cells line H1; assay: FACS and immunocytochemistry after Stage 4 treatment with different concentrations of TPB (Example 1); conditions: for INS, percentage of the total cell population / NKX6.1, percentage of the total cell population / NKX6.1/INS, percentage of the total cell population / Synaptophysin, percentage of the total cell population: Stage 4 six days
Method: In a separate experiment, cells of the human embryonic stem cells line H1 were cultured on MATRIGEL® (1:30 dilution) coated dishes with RPMI medium+0.2% FBS+100 ng/ml activin A+20 ng/ml WNT-3a for one day followed by treatment with RPMI media+0.5% FBS+100 ng/ml activin A for an additional two days (Stage 1), then • a. DMEM/F12+2% FBS+50 ng/ml FGF7 for three days (Stage 2), then • b. DMEM-High glucose+1% B27+0.25 μM Cyclopamine-KAAD+2 μM Retinoic acid (RA)+100 ng/ml of Noggin for four days (Stage 3), then • c. Treatment 1: DMEM-High glucose+1% B27+100 ng/ml Noggin+1 μM ALK5 inhibitor II+500 nM TBP for six days (Stage 4, Treatment 1), or • d. Treatment 2: DMEM-High glucose+1% B27+100 ng/ml Noggin+1 μM ALK5 inhibitor II+100 nM TBP for six days (Stage 4, Treatment 2), or • e. Treatment 3: DMEM-High glucose+1% B27+100 ng/ml Noggin+1 μM ALK5 inhibitor II+20 nM TBP for six days (Stage 4, Treatment 3), or • f. Treatment 4: DMEM-High glucose+1% B27+100 ng/ml Noggin+1 μM ALK5 inhibitor II for six days (Stage 4, Treatment 4).
Immunocytochemistry analysis was used to assess the effects of the different concentrations of TPB on the formation of the cells of the present invention. […] FACS analysis confirmed that both treatments gave rise to 12% single insulin expressing cells in vitro and […] of that population also expressed NKX6.1 (Table 1—NKX6.1/INS expressing cells were 2.4% of the total population).

[3] = system: human embryonic stem cells line H1; conditions: for type of insulin expressing cells formed: 500 nM, after six days; for GCG (glucagon expressing cells), percentage of the total cell population / INS (single insulin expressing cells), percentage of the total cell population / INS/GCG (insulin and glucagon co-expressing cells), percentage of the total cell population / Synaptophysin, percentage of the total cell population: Stage 4 six days, TPB 500 nM, ILV 500 nM, GÖ 6976 5 μM, FACS
Method: Other protein kinase C activators were also tested. These were Indolactam V (ILV) (Axxora; Cat #ALX-420-011-C300) and phorbol-12-myristate-13-acetate (PMA) (Calbiochem; Cat #524400).

[4] = system: human embryonic stem cells line H1; assay: FACS after six, nine or twelve days of Stage 4 TPB treatment (Example 3); conditions: 500 nM TPB
Method: In another experiment, cells of the human embryonic stem cells line H1 were cultured on […]® (1:30 dilution) coated dishes with RPMI medium+0.2% FBS+100 ng/ml activin A+20 ng/ml WNT-3a for one day followed by treatment with RPMI media+0.5% FBS+100 ng/ml activin A for an additional two days (Stage 1), then • DMEM/F12+2% FBS+50 ng/ml FGF7 for three days (Stage 2), then • DMEM-High glucose+1% B27+50 ng/ml FGF7+0.25 μM Cyclopamine-KAAD+2 μM Retinoic acid (RA)+100 ng/ml of Noggin+20 ng/ml Activin A+a p38 kinase inhibitor (JNJ3026582, at 2.5 μM) for four days (Stage 3), then • Treatment 10: DMEM-High glucose+1% B27+100 ng/ml Noggin+1 μM ALK5 inhibitor II+500 nM TPB for six days (Stage 4, Treatment 10), or • Treatment 11: DMEM-High glucose+1% B27+100 ng/ml Noggin+1 μM ALK5 inhibitor II+500 nM TPB for nine days (Stage 4, Treatment 11), or • Treatment 12: DMEM-High glucose+1% B27+100 ng/ml Noggin+1 μM ALK5 inhibitor II+500 nM TPB for twelve days (Stage 4, Treatment 12)

[5] = system: human embryonic stem cell line H1; assay: Pancreatic endoderm marker expression after Stage 3 TPB treatment (Example 6)
Method: Briefly, cells of the human embryonic stem cell line H1 were cultured on MATRIGEL® (1:30 dilution) coated dishes and RPMI medium supplemented with 0.2% FBS, 100 ng/ml activin A and 20 ng/ml WNT-3a for one day, followed by treatment with RPMI media supplemented with 0.5% FBS and 100 ng/ml activin A, for an additional two days (Stage 1), then • DMEM/F12+2% FBS+50 ng/ml FGF7 for three days (Stage 2), then • T1: DMEM-High glucose+1% B27+0.25 μM Cyclopamine-KAAD+2 μM Retinoic acid (RA)+100 ng/ml of Noggin+FGF10 50 ng/ml for four days (Stage 3, T1) or, • T2: DMEM-High glucose+1% B27+0.25 μM Cyclopamine-KAAD+2 μM Retinoic acid (RA)+100 ng/ml of Noggin+FGF10 50 ng/ml+100 nM TPB for four days (Stage 3, T2), then • DMEM-High glucose+1% B27+100 ng/ml Noggin+1 μM ALK5 inhibitor II for six days (Stage 4)
NKX6.1 was undetectable by immunohistochemistry.

[6] = both 500 nM and 100 nM TPB treatments, FACS
[7] = cultures treated with TPB, immunocytochemistry
[8] = Stage 4 for nine days (Treatment 11)
[9] = Stage 4 for six days (Treatment 10)
[10] = Stage 4 for twelve days (Treatment 12)
[11] = 100 nM TPB at Stage 3 for four days (T2) compared to control group (T1)

SMILES: CC(C)[C@H]1C(=O)N[C@H](CO)Cc2cc(NC(=O)/C=C/C=C/c3ccc(C(F)(F)F)cc3)ccc2N1C [TPB, (2S, 5S)-(E, E)-8-(5-(4-(Trifluoromethyl)phenyl)-2,4-pentadiemoylamino) benzolactam]
- insulin-expressing cells ([1]; 500 nM at Stage 4 for six days with Noggin and ALK5 inhibitor II, vs control without it, immunocytochemistry): increase
- insulin expressing cells that are single endocrine hormone expressing cells (no glucagon, somatostatin, ghrelin) ([1]; 500 nM at Stage 4 for six days, share of insulin expressing cells): about 60%
- insulin and glucagon co-expression ([2]; 20 nM TPB, similar to the control group, immunocytochemistry): most cells co-expressed insulin and glucagon
- number of single insulin-expressing cells ([2]; 500 nM and 100 nM TPB treatment groups, immunocytochemistry): Significant increases
- INS, percentage of the total cell population ([2]; TPB 100 nM, FACS): 14.4%
- NKX6.1, percentage of the total cell population ([2]; TPB 100 nM, FACS): 34.8%
- NKX6.1/INS, percentage of the total cell population ([2]; TPB 100 nM, FACS): 3.1%
- Synaptophysin, percentage of the total cell population ([2]; TPB 100 nM, FACS): 47.6%
- INS, percentage of the total cell population ([2]; TPB 500 nM, FACS): 9.4%
- NKX6.1, percentage of the total cell population ([2]; TPB 500 nM, FACS): 45.7%
- NKX6.1/INS, percentage of the total cell population ([2]; TPB 500 nM, FACS): 2.4%
- Synaptophysin, percentage of the total cell population ([2]; TPB 500 nM, FACS): 38.3%
- single insulin expressing cells [2, 6]: 12%
- single insulin expressing population that also expressed NKX6.1 [2, 6]: 15%
- type of insulin expressing cells formed ([3]; immunocytochemistry): demonstrated the formation of single insulin expressing cells
- GCG (glucagon expressing cells), percentage of the total cell population [3]: 4.6%
- INS (single insulin expressing cells), percentage of the total cell population [3]: 12%
- INS/GCG (insulin and glucagon co-expressing cells), percentage of the total cell population [3]: 7.1%
- Synaptophysin, percentage of the total cell population [3]: 30.6%
- insulin expressing cells that co-expressed NEUROD [3, 7]: majority
- insulin expressing cells that co-expressed NKX6.1 [3, 7]: 20%
- insulin expressing cells that co-expressed PDX1 [3, 7]: 20%
- insulin expressing cells that co-expressed somatostatin or ghrelin (GHRL) [3, 7]: Very few
- Glucagon, percentage of the total cell population [4, 8]: 6.6%
- Insulin, percentage of the total cell population [4, 8]: 10.0%
- Insulin/Glucagon, percentage of the total cell population [4, 8]: 7.8%
- NKX6.1, percentage of the total cell population [4, 8]: 33.5%
- NKX6.1/Insulin, percentage of the total cell population [4, 8]: 1.0%
- Synaptophysin, percentage of the total cell population [4, 8]: 43.5%
- Glucagon, percentage of the total cell population [4, 9]: 2.0%
- Insulin, percentage of the total cell population [4, 9]: 27.8%
- Insulin/Glucagon, percentage of the total cell population [4, 9]: 16.4%
- NKX6.1, percentage of the total cell population [4, 9]: 44.2%
- NKX6.1/Insulin, percentage of the total cell population [4, 9]: 11.0%
- Synaptophysin, percentage of the total cell population [4, 9]: 49.7%
- Glucagon, percentage of the total cell population [4, 10]: 4%
- Insulin, percentage of the total cell population [4, 10]: 4.4%
- Insulin/Glucagon, percentage of the total cell population [4, 10]: 6.3%
- NKX6.1, percentage of the total cell population [4, 10]: 32.5%
- NKX6.1/Insulin, percentage of the total cell population [4, 10]: 1.0%
- Synaptophysin, percentage of the total cell population [4, 10]: 37.6%
- NKX6.1 by immunohistochemistry ([5]; 100 nM TPB at Stage 3 for four days (T2)): undetectable
- expression of NKX6.1 [5, 11]: significant down-regulation
- expression of PDX1 [5, 11]: significant down-regulation
- expression of PTF1 alpha [5, 11]: significant down-regulation

SMILES: CCCCCCCCCCCCCC(=O)O[C@@H]1[C@@H](C)[C@@]2(O)[C@@H](C=C(CO)C[C@]3(O)C(=O)C(C)=C[C@@H]23)[C@@H]2C(C)(C)[C@]12OC(C)=O [PMA, phorbol-12-myristate-13-acetate]
- type of insulin expressing cells formed ([3]; immunocytochemistry): cells co-expressing insulin and glucagon

SMILES: CC(C)[C@H]1C(=O)N[C@H](CO)Cc2c[nH]c3cccc(c23)N1C [ILV, Indolactam V]
- type of insulin expressing cells formed ([3]; immunocytochemistry): cells co-expressing insulin and glucagon
- GCG (glucagon expressing cells), percentage of the total cell population [3]: 12% and 12.6%
- INS (single insulin expressing cells), percentage of the total cell population [3]: 3%
- INS/GCG (insulin and glucagon co-expressing cells), percentage of the total cell population [3]: 12.9%
- Synaptophysin, percentage of the total cell population [3]: 56.8%
